Several values for one entry are separate records, joined by “and”; a condition that tells them apart may be missing. Equal entries are not always repeated. After the bases stand the sugars from the 5' end (letter, count) and the backbone: PS all phosphorothioate, else s phosphorothioate and o phosphodiester by linkage. Methylation of C is not given here. e = 2'-O-(2-methoxyethyl) (MOE); k = constrained ethyl (cEt); d = 2'-deoxy (DNA)

The target in this data set is IRF4. To be noted: ASO.

For the sequence GGCAGTTCTTTCAGCA (sugars k3 d10 k3, PS), for the setting “SK-MEL-28, 4 µM”, the target mRNA inhibition was found to be 37%.
In the case of CAGTGTGATTAATTCT (sugars k3 d10 k3, PS), where the note is “MM.1R, 1 µM”, the target mRNA inhibition was found to be 17%.
For the sequence GCCAAAGTGACTTAAT (sugars k3 d10 k3, PS), the target mRNA inhibition (SK-MEL-28, 4 µM) came to 70%.
Take GCACGCAAGGCTCGGA (sugars k3 d10 k3, PS): where the note is “MM.1R, 1 µM”, the target mRNA inhibition stood at 7%.
On to CTATATAAAAAGTGGG (sugars k3 d10 k3, PS), for which the target mRNA inhibition (SK-MEL-28, 4 µM) amounted to 16%.
On the same count and under the same terms, the same measure for TGGGAGTACCCGCAGA (sugars k3 d10 k3, PS): 26%; for CAATAGTCTAGCTGGG (sugars k3 d10 k3, PS): 63%; for TTCAAAGCGCACCGCA (sugars k3 d10 k3, PS): 49%.
Same read-out and setting: the same measure for ACCAAATTCCCGGAGG (sugars k3 d10 k3, PS): 7%.
Consider “TTTATGTTAGCCAATT (sugars kdddddddddkekeke, PS)”, for which, where the note is “MM.1R, 1 µM”, the target mRNA inhibition was 5% and 14%.
As to CACCCCTTCTTGTGGA (sugars k3 d10 k3, PS), the target mRNA inhibition (SK-MEL-28, 4 µM) was 40%.
Consider GCATGTTCCTCAAAGC (sugars k3 d10 k3, PS), for which the target mRNA inhibition (SK-MEL-28, 4 µM) turned out to be 76%.
For AGTCGCGCAAGTCTAC (sugars k3 d10 k3, PS), the target mRNA inhibition (MM.1R, 1 µM) worked out at 0%.
Still for that read-out and setting: with “AAGCATTTTATCATCC (sugars kkkdddddddddkeke, PS)” the figure was 21%.
GCTGATAATTAATCTG (sugars k3 d10 k3, PS): the target mRNA inhibition (MM.1R, 1 µM) is -9%.
As to ACTATGGTAGGAGTGT (sugars k3 d10 k3, PS), for the setting “SK-MEL-28, 4 µM”, the target mRNA inhibition was determined as 25%.
On the same count and under the same terms, the same measure for CTACCTTTTTTGGCTC (sugars k3 d10 k3, PS): 17%; for GTTGAAAGAACCAAGC (sugars k3 d10 k3, PS): 11%; for CTAGTCAGTGTCAATA (sugars k3 d10 k3, PS): 51%.
AGGAACAAGTGTATCT (sugars k3 d10 k3, PS): the target mRNA inhibition (SK-MEL-28, 4 µM) was determined as 46%.
Regarding “ACGTGTGCTTGCCAAG (sugars kddddddddddkekek, PS)”, the target mRNA inhibition (MM.1R, 1 µM) was 47% and 37%.
For the sequence GCGGAGCATCAACAAA (sugars k3 d10 k3, PS), for the setting “SK-MEL-28, 4 µM”, the target mRNA inhibition amounted to 30%.
For GTTTGCCATGGTATTT (sugars k3 d10 k3, PS), the target mRNA inhibition (MM.1R, 1 µM) was 41% and 50%.
On to CCACGAGGCACCGCAC (sugars k3 d10 k3, PS), for which the target mRNA inhibition (SK-MEL-28, 4 µM) was -19%.
Turning to TCAAAGTCATTGCTCT (sugars k4 d8 k4, PS), the target mRNA inhibition runs as follows: (MM.1R, 0.074 µM) -3%; (MM.1R, 0.222 µM) 6%; (MM.1R, 0.666 µM) 6%; (MM.1R, 2 µM) 13%; (SK-MEL-28, 0.185 µM) 4% and -4% and 0%; (SK-MEL-28, 4 µM) 57%.
AAAACAGTAAGAGGGC (sugars k3 d10 k3, PS): the target mRNA inhibition (SK-MEL-28, 4 µM) stood at 39%.
Still for that read-out and setting: with TCATGATATTAGAGAC (sugars k3 d10 k3, PS) the figure was 35%; with AGGCACATCAATGTTT (sugars k3 d10 k3, PS), 51%.
For the sequence GTGTTTGCCATGGTAT (sugars k3 d10 k3, PS), the target mRNA inhibition (MM.1R, 0.0625 µM) is -1%; the target mRNA inhibition (MM.1R, 0.25 µM) was found to be 13%; the target mRNA inhibition (MM.1R, 1 µM) is 57% and 40%; the target mRNA inhibition (MM.1R, 4 µM) is 70%.
For the sequence CTGAACTGAAATCTCC (sugars k3 d10 k3, PS), for the setting “SK-MEL-28, 4 µM”, the target mRNA inhibition is 64% and 63%.
Consider CTTTATGCGAAGAATT (sugars k3 d10 k3, PS), for which the target mRNA inhibition (SK-MEL-28, 4 µM) came to 30%.
Consider GCTGAACTGTGTAATG (sugars k3 d10 k3, PS), for which, under “SK-MEL-28, 4 µM”, the target mRNA inhibition worked out at 58%.
Same read-out and setting: with TATCCATGTTGCATGG (sugars k3 d10 k3, PS) the figure was 61%; with CCTGTCACCTGGCAAC (sugars k4 d8 k4, PS), 37%.
Still for that read-out and setting: the same measure for GGTCATACCCTGGATC (sugars k3 d10 k3, PS): 49%; for TCCTCAACCGCTGAAC (sugars k3 d10 k3, PS): 37%.
Consider “AGTATGAGAAACGGCC (sugars kkkddddddddkekek, PS)”, for which the target mRNA inhibition (MM.1R, 1 µM) stood at 10%.
On the same count and under the same terms, the same measure for GGGTGGTAGAATGTGA (sugars k3 d10 k3, PS): 33%.
CAACTAGCAGGGCACG (sugars k3 d10 k3, PS): the target mRNA inhibition (SK-MEL-28, 4 µM) was 38%.
For the sequence ACCTTATGCTTGGCTC (sugars k4 d8 k4, PS), under “SK-MEL-28, 4 µM”, the target mRNA inhibition stood at 30%.
Turning to AATGGCAGCACCGTGT (sugars k3 d10 k3, PS), the target mRNA inhibition (MM.1R, 1 µM) is 0%.
Still for that read-out and setting: the same measure for “AATGTGTATTACTCTT (sugars kdddddddddkekeke, PS)”: 12% and 15%; for “ATGTTAGCCAATTCCT (sugars kkdddddddddkekek, PS)”: 28% and 44%.
Take CCTGAGACAAGTGCTA (sugars k3 d10 k3, PS): the target mRNA inhibition (SK-MEL-28, 4 µM) amounted to 43%.
The same measure, in the same setting: the same measure for CGGGAGATAAAGAACA (sugars k3 d10 k3, PS): 31%; for CCCGAATAGGACCCCT (sugars k3 d10 k3, PS): 40%.

The values above are taken from the OligoGym collection.
